Reference: patent US20180258404A1, “METHODS OF GENERATING NEPHRONS FROM HUMAN PLURIPOTENT STEM CELLS” (THE BRIGHAM AND WOMEN'S HOSPITAL, INC., priority 2015, published 2018)
Entries after “also recorded” stand apart in the source; their conditions may differ.

How the values were obtained:
Assay type in all cases: cell-based, human
kidney organoids = test: Aristolochic acid toxicity and nephroprotection model in kidney organoids; conditions: for PGC-1a expression (real-time quantitative PCR): AA alone or AA with cilostamide
Description: FIG. 34. […] Representative immunohistochemistry of aristolochic acid (AA) and tenofovir (TFV) treatments. Day 32 Kg-derived organoids. Al/AA treatments for 24H, while all TFV treatments for 48 H. Scale bars, 50 gm. Quantification determined as a percentage of DAP/+ cells. n=3, total DAP/+>1000 for each treatment. (*) indicates p-value<0.05.
FIG. 35. OAT1 inhibition by probenecid protects proximal tubules against AA toxicity. Representative immunohistochemistry of probenecid treatments with AA 2.5 gg/mL. Day 38 Kg-derived organoids. All treatments for 48 H. Scale bars, 50 um. Quantification determined as a percentage of DAPI+ cells. n=3, total DAPI+>1000 for each treatment. (*) indicates p-value<0.05.
FIG. 36. […] Representative immunohistochemistry of cilostamide and sildenafi/treatments with AA 2.5 gg/mL. Day 38 H9-derived organoids. All treatments for 48 H. Scale bars, 50 gm. Quantification determined as a percentage of DAPI+ cells. n=3, total DAPI+>1000 for each treatment. (*) indicates p-value<0.05.
FIG. 37. Real-time quantitative PCR mRNA was extracted from organoid samples and confirmed with Nanodrop. cDNA library Was generated by reverse transcription. AQP-I is prominently expressed on proximal tubules. PGC1-a is the master regulator of mitochondrial biogenesis.

NPCs in 3D culture = test: Growth factor and small molecule screening in 3D culture (LTL+ tubules); conditions: added in 3D culture from day 10
Experimental: FIG. 10. Spontaneous differentiation of SIX2+ cells into nephrons and growth factor screening in 3D culture. (a) Staining with PAX8 and LHX1 in hESCs on day 10 of the differentiation. hESCs were differentiated with CHIR 8 µM for 4 days, activn 10 ng/ml for 3 days, and FGF9 10 ng/ml for 3 days. […] Scale bar: 50 μm. (b) Brighfield imaging for hESCs on day 10 and 21 of the differentiation. FGF9 was withdrawn on day 10, and cells were cultured in the basic medium by day 21. Scale bars: 50 μm. (c) Brightfield and immunocytochemistry for LTL and NPHS1 in hESCs on day 28 of the differentiation. Scale bar: 50 μm. (d) The protocol for growth factor screening. Cells were replated to 3D culture on day 10, and the listed growth factors and small molecules were tested. (e) The number of LTL+ tubules in the organoids. […] (f) Brightfield imaging of 3D co-culture with an ureteric bud cell sphere. Scale bar: 100 μm. (g) Whole-mountstaining for LTL in the organoids on day 16. Scale bar: 100 μm. (h) Immunohistochemistry of the organoids on day 16. Scale bars: 50 μm. LTL: lotus tetragonolobus lectin. NPHS1: Nephrin.
To test whether the formation of epithelial structures could be facilitated by 3D culture conditions, on day 10, at the time of FGF9 withdrawal, the Inventors replated NPCs in ultra-low-attachment, round-bottom 96-well plates and cultured them for 1 week. NPCs formed 3D spherical aggregates, one per 96-well, in suspension culture.

H9 hESCs = test: Differentiation of hESCs into posterior intermediate mesoderm; conditions: for WT1 expression on day 7: added to CHIR in the first step, hESCs
Experimental: (§1) hPSCs grown on Geltrex were washed once with PBS (Life Technologies, #10010-049) and dissociated into single cells with Accutase ([…] Technologies, #07920). Cells were then plated at a density of 2-2.4×10^4 (H9) or 1-1.4×10^4 (HDF, 2C) cells/cm^2 onto 24-well tissue culture plates (TPP, #92024) coated with 1% Geltrex in ReproFF2 supplemented with the ROCK inhibitor Y27632 (10 μM) (TOCRIS, #1254) and FGF2 (10 ng/ml). After 72 hours, cells (50% confluent) were briefly washed in PBS and then cultured in basic differentiation medium consisting of Advanced RPMI 1640 (Life Technologies, #12633-020) and 1X L-GlutaMAX (Life Technologies, #35050-061) supplemented with CHIR99021 (8-10 μM) (TOCRIS, #4423) for 4 days to induce late primitive streak cells Noggin (5 ng/ml) was also used for hiPSC differentiation in addition to CHIR (10 μM). To induce posterior intermediate mesoderm, cells were then cultured in Advanced RPMI+1X L-GlutaMAX+activin (10 ng/mL) (R&D, #338-AC-050) for 3 days. For induction of nephron progenitor cells, the media was then changed to Advanced RPMI+1X L-GlutaMAX+FGF9 (10 ng/ml) (R&D, #273-F9-025/CF) for 7 days. CHIR (3 μM) was added to the media from day 9 to 11 of differentiation to induce renal vesicles. On day 14, cells were switched to the basic differentiation medium and cultured for an additional 7 to 14 days (total of 21 to 28 days). The medium was replaced every 2 or 3 days. A variety of growth factors and small molecules were tested for differentiation.
PAX2 and LHX1 were not expressed (FIG. 1f), confirming that activin treatment of late primitive streak cells produced posterior and not anterior IM cells.
As the posterior primitive streak is induced by a BMP4 signal gradient, the Inventors hypothesized that CHIR treatment of HDF-α hiPSCs might induce endogenous BMP4 production that promotes differentiation into the posterior primitive streak and subsequently lateral plate mesoderm. […] Optimizing the protocol for individual cell lines based on their endogenous BMP4 production maximized the efficiency of generating posterior IM.

HDF-α hiPSCs = test: Differentiation of hiPSCs into posterior intermediate mesoderm
Experimental: as §1, with “The medium was replaced every 2 or 3 days. A variety of growth factors and small molecules were tested for differentiation.” left out

COc1cccc2c1cc([N+](=O)[O-])c1c(C(=O)O)cc3c(c12)OCO3 [AA, aristolochic acid]
PGC-1a expression (real-time quantitative PCR) (kidney organoids): downregulated | kidney damage biomarkers by immunohistochemistry (kidney organoids; AA treatments for 24H, day 32 organoids): dose-dependent upregulation of kidney damage biomarkers

O=C(Nc1cccc2cccnc12)c1ccc(N2C(=O)[C@@H]3[C@H](C2=O)[C@@H]2C=C[C@H]3C2)cc1 [IWR-1]
number of LTL+ tubules in the organoids (NPCs in 3D culture): did not significantly increase the number of LTL+ tubules

CCCN(CCC)S(=O)(=O)c1ccc(C(=O)O)cc1 [Probenecid, probenecid]
nephroprotection against AA (kidney organoids; Probenecid 10 LIM with AA 2.5 gg/mL, 48 H, day 38 organoids): provided strongest nephroprotection against AA | damage to organoids (kidney organoids; probenecid alone, 48 H, day 38 organoids): causes no damage to organoids

NC(=O)c1ccc(-c2nc(-c3ccc4c(c3)OCO4)c(-c3ccccn3)[nH]2)cc1 [SB431542]
number of LTL+ tubules in the organoids (NPCs in 3D culture): did not significantly increase the number of LTL+ tubules

CN(C(=O)CCCOc1ccc2[nH]c(=O)ccc2c1)C1CCCCC1 [cilostamide]
PGC-1a expression (real-time quantitative PCR) (kidney organoids): protected | nephroprotection against AA (real-time quantitative PCR, AQP-I) (kidney organoids; cilostamide with AA): dose-dependent nephroprotection against AA, significant preservation of proximal tubules | mitochondrial biogenesis and protection (kidney organoids; cilostamide with AA 2.5 gg/mL, 48 H, day 38 H9-derived organoids): increases mitochondrial biogenesis and protection in AA-toxicity model

HGF: growth factor tested in 3D culture screening
number of LTL+ tubules in the organoids (NPCs in 3D culture): did not significantly increase the number of LTL+ tubules; also recorded: showed a tendency to increase LTL+ tubules

IGF-1: growth factor tested in 3D culture screening
number of LTL+ tubules in the organoids (NPCs in 3D culture): did not significantly increase the number of LTL+ tubules

JAG1: growth factor tested in 3D culture screening
number of LTL+ tubules in the organoids (NPCs in 3D culture): did not significantly increase the number of LTL+ tubules

B1: BMP7: growth factor tested in 3D culture screening (protein, UniProt P18075 293-431, looked up)
Bone morphogenetic protein 7: STGSKQRSQNRSKTPKNQEALRMANVAENSSSDQRQACKKHELYVSFRDLGWQDWIIAPEGYAAYYCEGECAFPLNSYMNATNHAIVQTLVHFINPETVPKPCCAPTQLNAISVLYFDDSSNVILKKYRNMVVRACGCH
number of LTL+ tubules in the organoids (NPCs in 3D culture): did not significantly increase the number of LTL+ tubules

B2: mouse Wnt9b: growth factor tested in 3D culture screening (protein, UniProt O35468 24-359, looked up)
Protein Wnt-9b: AAYFGLTGREVLTPFPGLGTAAAPAQAGAHLKQCDLLKLSRRQKQLCRREPGLAETLRDAAHLGLLECQFQFRQERWNCSLEGRTGLLQRGFKETAFLYAVSAAALTHALARACSAGRMERCTCDDSPGLESRQAWQWGVCGDNLKYSTKFLSNFLGPKRGSKDLRARADAHNTHVGIKAVKSGLRTTCKCHGVSGSCAVRTCWKQLSPFRETGQVLKLRYDTAVKVSSATNEALGRLELWAPAKPGGPAKGLAPRPGDLVYMEDSPSFCRPSKYSPGTAGRVCSRDSSCSSLCCGRGYDTQSRMVVFSCHCQVQWCCYVECQQCAQQELVYTCKR
number of LTL+ tubules in the organoids (NPCs in 3D culture): did not significantly increase the number of LTL+ tubules

B3: BMP4: growth factor; posteriorizes the primitive streak (protein, UniProt P12644 293-408, looked up)
Bone morphogenetic protein 4: SPKHHSQRARKKNKNCRRHSLYVDFSDVGWNDWIVAPPGYQAFYCHGDCPFPLADHLNSTNHAIVQTLVNSVNSSIPKACCVPTELSAISMLYLDEYDKVVLKNYQEMVVEGCGCR
FOXF1 expression at day 4 (H9 hESCs; BMP4 1 ng/mL added to CHIR): resulted in FOXF1 expression at day 4 | WT1 expression on day 7 (H9 hESCs): suppression of WT1 expression on day 7

B4: activin: growth factor used to induce posterior intermediate mesoderm (protein, UniProt P08476 311-426, looked up)
Inhibin beta A chain: GLECDGKVNICCKKQFFVSFKDIGWNDWIIAPSGYHANYCEGECPSHIAGTSGSSLSFHSTVINHYRMRGHSPFANLKSCCVPTKLRPMSMLYYDDGQNIIKKDIQNMIVEECGCS
modifications: Inhibin beta A chain
notes: growth factor used to induce posterior intermediate mesoderm
efficiency of generation of WT1+HOXD11+ posterior IM cells (HDF-α hiPSCs; activin after CHIR plus noggin 5 ng/mL in the first step): 80-90% | efficiency of induction of WT1+HOXD11+ cells (H9 hESCs; activin 10 ng/mL between days 4 and 7, after CHIR 8 μM for 4 days): ~90%

B5: WNT4: growth factor tested in 3D culture screening (protein, UniProt P56705 23-351, looked up)
Protein Wnt-4: SNWLYLAKLSSVGSISEEETCEKLKGLIQRQVQMCKRNLEVMDSVRRGAQLAIEECQYQFRNRRWNCSTLDSLPVFGKVVTQGTREAAFVYAISSAGVAFAVTRACSSGELEKCGCDRTVHGVSPQGFQWSGCSDNIAYGVAFSQSFVDVRERSKGASSSRALMNLHNNEAGRKAILTHMRVECKCHGVSGSCEVKTCWRAVPPFRQVGHALKEKFDGATEVEPRRVGSSRALVPRNAQFKPHTDEDLVYLEPSPDFCEQDMRSGVLGTRGRTCNKTSKAIDGCELLCCGRGFHTAQVELAERCSCKFHWCCFVKCRQCQRLVELHTCR
number of LTL+ tubules in the organoids (NPCs in 3D culture): did not significantly increase the number of LTL+ tubules

B6: noggin: a BMP4 signaling antagonist (protein, UniProt Q13253 28-232, looked up)
Noggin: QHYLHIRPAPSDNLPLVDLIEHPDPIFDPKEKDLNETLLRSLLGGHYDPGFMATSPPEDRPGGGGGAAGGAEDLAELDQLLRQRPSGAMPSEIKGLEFSEGLAQGKKQRLSKKLRRKLQMWLWSQTFCPVLYAWNDLGSRFWPRYVKVGSCFSKRSCSVPEGMVCKPSKSVHLTVLRWRCQRRGGQRCGWIPIQYPIISECKCSC
T, TBX6 and FOXF1 expression on day 4 (HDF-α hiPSCs; noggin 5 ng/mL with CHIR in the first step of differentiation): expressed T and TBX6 but not FOXF1 on day 4 | WT1 expression on day 7 (H9 hESCs): significantly suppressed WT1 expression on day 7
